Experimental data taken from paper PMC4674309 (Molecular cancer therapeutics, 2015).

Target: IGF-IR (Homo sapiens, UniProt P08069)
Assay: Western blot of IGF-IR autophosphorylation
Format: cell-based

Chain of IGF-IR (P08069 31-736): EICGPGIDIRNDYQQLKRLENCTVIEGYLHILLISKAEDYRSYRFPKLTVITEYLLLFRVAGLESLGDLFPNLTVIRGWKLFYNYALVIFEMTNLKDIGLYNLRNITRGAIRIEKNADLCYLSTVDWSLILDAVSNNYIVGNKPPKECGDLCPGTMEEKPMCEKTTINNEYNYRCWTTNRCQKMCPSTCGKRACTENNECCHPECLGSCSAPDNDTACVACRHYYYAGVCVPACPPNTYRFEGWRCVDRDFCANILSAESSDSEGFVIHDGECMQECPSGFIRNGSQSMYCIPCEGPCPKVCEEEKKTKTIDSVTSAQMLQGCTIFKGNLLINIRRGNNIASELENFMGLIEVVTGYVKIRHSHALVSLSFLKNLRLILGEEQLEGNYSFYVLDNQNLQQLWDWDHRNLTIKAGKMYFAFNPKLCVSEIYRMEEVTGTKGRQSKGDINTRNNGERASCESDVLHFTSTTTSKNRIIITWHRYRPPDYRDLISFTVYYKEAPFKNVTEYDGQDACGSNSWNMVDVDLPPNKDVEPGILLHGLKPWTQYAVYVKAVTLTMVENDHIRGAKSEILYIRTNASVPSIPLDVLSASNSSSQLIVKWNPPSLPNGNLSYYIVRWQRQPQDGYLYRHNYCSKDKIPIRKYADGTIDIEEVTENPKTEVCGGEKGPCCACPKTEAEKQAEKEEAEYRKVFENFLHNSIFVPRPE
Chain of IGF-IR (P08069 741-1367): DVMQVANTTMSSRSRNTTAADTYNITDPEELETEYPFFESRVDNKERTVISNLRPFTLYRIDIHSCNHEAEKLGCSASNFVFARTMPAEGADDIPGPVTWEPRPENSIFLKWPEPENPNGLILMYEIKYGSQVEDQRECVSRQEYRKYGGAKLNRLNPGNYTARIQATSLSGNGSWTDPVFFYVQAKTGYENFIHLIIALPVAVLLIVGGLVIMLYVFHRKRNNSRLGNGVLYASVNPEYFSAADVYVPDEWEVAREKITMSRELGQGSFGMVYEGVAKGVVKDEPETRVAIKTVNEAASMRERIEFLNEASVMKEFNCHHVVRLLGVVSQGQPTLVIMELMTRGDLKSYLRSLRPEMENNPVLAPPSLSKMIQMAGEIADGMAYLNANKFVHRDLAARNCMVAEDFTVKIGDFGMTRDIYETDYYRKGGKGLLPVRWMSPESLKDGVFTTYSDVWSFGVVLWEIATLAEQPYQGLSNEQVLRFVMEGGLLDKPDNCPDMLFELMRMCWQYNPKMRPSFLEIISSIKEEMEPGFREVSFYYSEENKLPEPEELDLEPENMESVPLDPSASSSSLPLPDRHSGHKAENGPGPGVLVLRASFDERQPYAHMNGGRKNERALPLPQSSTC

Cc1ccsc1C(=O)Nc1cc(CN2CCN(C(=O)CO)CC2)ccc1/C=C/c1n[nH]c2ccccc12 [KW-2450]
IC50: < 2 nM
